Results from patent US6563025B1, “Nucleotide sequences encoding anthranilate synthase” (Board of Trustees of the University of Illinois, priority 1996, dated 2003).
Values joined by “and” are separate entries in the source; they are usually repeats but may differ in a detail not shown here. Equal entries are not always repeated. “Also recorded” adds a separate entry of the source. Where two headings read alike, the source gives them in different places.

Assays:
[1] = tested on: A. sinicus hairy root lines; assay: Quantitative root growth test of A. sinicus hairy root lines with 5MT; type: cell-based
Protocol: Hairy roots were weighed to determine fresh weight, and these samples were dried for 12 h at […] before dry weight determination.
Since expression of the feedback-insensitive ASA2 gene should increase resistance to the Trp analog 5MT as shown previously with E. coli (Song et al., 1998), a quantitative root growth test was used to assess the extent of 5MT resistance of the transformed hairy root lines. Transformed roots were grown for 6 weeks with 0, 10, 15, 20, 25, 30, 40, 50, 75 and 100 μM 5MT in both MS liquid and solid medium, respectively (FIGS. 18A to 18C and FIGS. 19A and 19B).

soybean hairy root lines = assay: Quantitative root growth test of soybean hairy root lines with 5MT; type: cell-based; settings: solid medium, 8 weeks; compared with A. sinicus
Protocol: The soybean (cv. Williams 82) cotyledons from 4 to 6-day-old-seedlings were harvested and wounded with a scalpel previously-dipped into an overnight culture of the A. rhizogenes strain K599. Cotyledons were inoculated by cutting the adaxial face several times to form a checked wound site and the abaxial side was placed on sterile distilled water partially immersed filter paper and incubated as described above. Three days after inoculation, cotyledons were transferred to medium containing Murashige and Skoog basal minerals and B5 organics (Gamborg, O. L., et al. Expt. Cell. Res. 50: 148-151, 1968) solidified with 3 g/1 Gellan gum (Kelko, Division of Merck) (MXB medium) in 100×25 mm petri dishes. To inhibit the growth of bacteria and to select transformed roots, 500 mg/l of carbenicillin disodium and 200 mg/l kanamycin were added to the MXB medium. After hairy roots developed from wounded cotyledons,. single root tips (2-3 cm) were excised and used to establish bacteria-free root clones by subculture to fresh MXB solid medium grown at 28° C. in the dark. […]
Large numbers of kanamycin resistant root lines were produced from soybean cotyledons transformed with pBIN-ASA2 and a quantitative root growth test was also performed to assess the extent of 5MT resistance of the transformed hairy root lines. […]

A. sinicus seedlings = assay: Direct selection of hairy root lines from A. sinicus seedlings; type: cell-based
Protocol: Four to seven day old seedlings of A. sinicus with roots removed were then fully immersed in the 1 day cultured bacterial suspension in a petri dish for 10 min, wiped with sterilized filter paper and then placed on partially water immersed filter paper and incubated under 16 h light ([…] m-2 s-1, cool white fluorescent lamps). Three days after co-cultivation, plants were transferred to Murashige and Skoog (Murashige, T., & Skoog, F. Physiol. Plant. 15:473-497, 1962), MS, medium solidified with 3g/l Gellan Gum containing 500 mg/l of carbenicillin disodium and 75 mg/l kanamycin.
Since the A. sinicus hairy root lines initially selected for kanamycin-resistance but which were also transformed with the feedback-insensitive ASA2 cDNA show resistance to growth inhibition by 5MT (FIG. 18), we wanted to determine if direct selection could be done for A. sinicus hairy root line formation on medium containing 5MT (FIGS. 21A and 21B). Transformation of A. sinicus seedlings with DC-AR2 harboring pBIN-ASA2 gave rise to hairy root line formation on medium containing 0, 15, 20, 25, 30 and 40 μM 5MT but inhibition occurred at 50, 75 and 100 μM.

E. coli trpE5972 = assay: Complementation and inhibition tests in trpE mutant E. coli; type: cell-based; settings: no Trp
Protocol: The pQES61K was transformed into a trpE nonsense (trpE 5972) mutant E. coli. The trpE nonsense mutant E. coli (trpE 5972) transformed with an expression vector itself (Vector) and the ASA2 cDNA ligated into the expression vector (ASA2) were plated on the M9 minimal medium containing, isopropyl-thiogalactoside (IPTG, 0.1 mM) and ampicillin (100 μg/ml) and either with Trp (+Trp, FIG. 5A) or without Trp (−Trp, FIG. 5B). The complemented strain grew well on M9 medium without Trp and also with 300 μM 5MT (FIG. 5C) which inhibits the growth of the complemented strain carrying feedback-sensitive plant AS (Bohlmann et al., Plant Physiol., 111: 507-514, 1996).
The chimeric constructs were transformed into trpE mutant E. coli (trpE5972, nonsense mutant) using CaCl2 transformation (Sambrook et al., 1989, supra). Complemented strains were plated on M9 minimal medium containing ampicillin (100 μg/ml) and isopropylthiogalactoside (IPTG, 0.1 mM), but no Trp. For the inhibition test, 300 μM 5MT was added to the minimal medium described previously. FIGS. 16A and 16B were taken two days after streaking.

anthranilate synthase = assay: AS activity in extracts of A. sinicus hairy root lines, inhibition by Trp; type: biochemical; settings: control lines; Trp concentration causing 50% inhibition; NH4Cl as second substrate; read-out: apparent Ki for Trp
Protocol: Extracts were prepared using a Tenbroeck tissue grinder (Kontes Glass Co., Vineland, N.J.), and the ASA1 extraction buffer (2 ml/g tissue) described by Bernasconi and coworkers (Bernasconi, P., et al., Plant Physiol., 106: 353-358, 1994). After removal of cellular debris by centrifugation (10 min at 35,000 × g and 4° C.), one volume of the supernatant was combined with two volumes of room temperature saturated (NH4)2SO4, and then centrifuged as before. The resulting pellet was resuspended in extraction buffer (1 ml/g tissue) and used immediately. When glutamine was used as the second substrate for the AS catalyzed reaction, the resuspended enzyme solution was desalted using Sephadex G25 to remove residual (NH4)2SO4.
AS activity was measured as described in Song et al. (1998, supra) except the assay buffer was that described by Bernasconi et al. (1994, supra) without NH4Cl in the buffer. Either 100 mM NH4Cl or 10 mM glutamine was added to the assay mixture to determine α-subunit activity or AS holoenzyme activity, respectively.

tobacco ASA2 [2] = assay: Feedback inhibition assay of tobacco ASA2 expressed in E. coli; type: biochemical, N. tabacum; settings: partially purified ASA2 expressed in E. coli
Protocol: The tobacco ASA2 gene was expressed in E. coli strain trpE5972, a mutant line containing a nonsense trpE gene, grown to late log phase on Luria Bertani medium with 100 μM Trp. Expression was induced by addition of 100 μM isopropylthiogalactoside. A protease inhibitor, 135 μM phenylmethylsulfonylfluoride (PMSF), was added with further incubation for three hours at 30° C., 150 rpm. The cells were collected by centrifugation and resuspended in 50 mM Tris, 5 mM MgCl2, 100 mM NH4Cl, 2 mM dithiothreitol, 20% glycerol, pH 8.0 plus 100 μM PMSF and disrupted using a French press (2 passes, 20,000 psi). Cell debris was removed by centrifugation and the supernatant treated with Ni-affinity resin. Bound protein was eluted with 100 μM imidazole in pH 6.3 buffer.

altered AS = altered AS (Arabidopsis thaliana, UniProt P32068, D341N); settings: 100 μM Trp; cited from earlier work
Arabidopsis ASA1 = target: T1, Arabidopsis ASA1 (Arabidopsis thaliana, UniProt P32068); assay: Feedback inhibition assay of Arabidopsis ASA1 expressed in E. coli; type: biochemical, A. thaliana; settings: 100 μM and lower concentrations of Trp; crude E. coli cell extract
T1 construct: made in house; host or cells: E. coli JM109
T1 sequence (P32068 55-595): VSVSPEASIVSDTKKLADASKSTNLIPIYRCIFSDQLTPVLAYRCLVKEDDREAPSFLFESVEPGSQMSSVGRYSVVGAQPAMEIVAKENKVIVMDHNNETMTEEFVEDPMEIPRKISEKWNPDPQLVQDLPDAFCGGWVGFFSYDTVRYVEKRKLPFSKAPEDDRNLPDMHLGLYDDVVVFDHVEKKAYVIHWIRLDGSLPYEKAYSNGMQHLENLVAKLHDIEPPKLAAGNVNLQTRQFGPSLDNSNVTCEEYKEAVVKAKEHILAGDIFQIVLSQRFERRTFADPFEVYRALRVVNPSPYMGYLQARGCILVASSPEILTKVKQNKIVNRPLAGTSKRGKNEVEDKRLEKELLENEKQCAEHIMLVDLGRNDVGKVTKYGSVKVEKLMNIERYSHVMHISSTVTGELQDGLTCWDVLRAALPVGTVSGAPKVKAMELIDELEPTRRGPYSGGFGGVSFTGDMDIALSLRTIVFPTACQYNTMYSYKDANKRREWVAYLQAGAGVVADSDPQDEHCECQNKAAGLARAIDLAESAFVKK
Protocol: The tobacco ASA2 gene was expressed in E. coli strain trpE5972, a mutant line containing a nonsense trpE gene, grown to late log phase on Luria Bertani medium with 100 μM Trp. Expression was induced by addition of 100 μM isopropylthiogalactoside. A protease inhibitor, 135 μM phenylmethylsulfonylfluoride (PMSF), was added with further incubation for three hours at 30° C., 150 rpm. The cells were collected by centrifugation and resuspended in 50 mM Tris, 5 mM MgCl2, 100 mM NH4Cl, 2 mM dithiothreitol, 20% glycerol, pH 8.0 plus 100 μM PMSF and disrupted using a French press (2 passes, 20,000 psi). Cell debris was removed by centrifugation and the supernatant treated with Ni-affinity resin. Bound protein was eluted with […] imidazole in pH 6.3 buffer. The Arabidopsis ASA1 gene was similarly expressed except that the E. coli strain JM109 was used and enzyme activity in a crude cell extract without Ni-affinity purification was characterized.
Enzyme activity was measured with and without Trp in 50 mM Tris, 5 mM M?gCl2, 1 mM EDTA, 100 mM NH4Cl, 2 mM dithiothreitol, 20% glycerol, pH 7.8 plus 100 μM chorismate. Anthranilate produced in; 30 min at 30° C. was extracted using ethyl acetate and fluorescence measured at excitation 340 and emission 400.

tobacco ASA2 [3] = settings: ASA2 expressed in E. coli; read-out: apparent Ki for Trp; cited from earlier work
AS [4] = settings: cited from earlier work; for Ki: read-out: apparent Ki for Trp
AS [5] = assay: AS activity in extracts of tobacco suspension cultured cells, inhibition by Trp; type: biochemical, N. tabacum; settings: 100 μM Trp; original 5MT-resistant cell lines
[6] = control hairy root lines, 6 weeks
[7] = seedlings transformed with DC-AR2 harboring pBIN-ASA2

Chain of altered AS (P32068 55-595 D341N): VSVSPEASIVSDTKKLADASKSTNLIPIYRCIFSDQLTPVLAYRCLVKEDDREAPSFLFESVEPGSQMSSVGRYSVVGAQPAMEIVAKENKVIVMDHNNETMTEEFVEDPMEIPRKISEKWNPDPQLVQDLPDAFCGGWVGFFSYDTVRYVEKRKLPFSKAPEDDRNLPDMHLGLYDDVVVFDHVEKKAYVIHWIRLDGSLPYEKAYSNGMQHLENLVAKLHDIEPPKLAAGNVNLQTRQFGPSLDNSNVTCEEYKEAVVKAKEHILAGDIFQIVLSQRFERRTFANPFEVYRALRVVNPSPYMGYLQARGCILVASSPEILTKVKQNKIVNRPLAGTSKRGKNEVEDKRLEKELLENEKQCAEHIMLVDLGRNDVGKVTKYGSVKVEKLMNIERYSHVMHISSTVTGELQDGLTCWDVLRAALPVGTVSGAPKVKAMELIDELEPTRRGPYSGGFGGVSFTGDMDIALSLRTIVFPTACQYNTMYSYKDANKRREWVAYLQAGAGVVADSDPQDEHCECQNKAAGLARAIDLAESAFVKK

Q: With `Cc1ccc2[nH]cc(C[C@H](N)C(=O)O)c2c1` [5MT, 5-methyltryptophan] as the molecule, how does the “5MT concentration inhibiting hairy root growth” value [1, 6] read?
A: 10 to 20 µM

Q: And the “5MT concentration of almost complete inhibition” value [1, 6]?
A: ≥ 30 µM

Q: What about the “5MT concentration at which lines turned brown and died” value ([1]; control hairy root lines, liquid medium) of the same molecule?
A: ≥ 20 µM

Q: What about the “5MT concentration at which lines grew” value ([1]; transformed lines A-7, 8, 9, 10 and 20, liquid medium) of the same molecule?
A: up to 100 μM

Q: What about the “5MT concentration at which lines are able to grow” value ([1]; transformed lines A-7, 8, 9, 10 and 20, maximum concentration tested) of the same molecule?
A: up to 100 μM

Q: What about the “Sensitivity of hairy root lines to 5MT inhibition” value (soybean hairy root lines) of the same molecule?
A: more sensitive to 5MT inhibition than those of A. sinicus

Q: And the “5MT concentration for effective direct selection of 35S-ASA2 transformed roots” value (A. sinicus seedlings)?
A: 15 to 40 µM

Q: What about the “5MT concentration at which roots turned brown and died” value (A. sinicus seedlings; control roots, DC-AR2, subculture) of the same molecule?
A: ≥ 15 µM

Q: What about the “5MT concentration at which no hairy root lines were formed” value (A. sinicus seedlings; control, transformed with DC-AR2) of the same molecule?
A: ≥ 25 µM

Q: And the “5MT concentration allowing hairy root line formation” value (A. sinicus seedlings; [7])?
A: ≤ 40 µM

Q: And the “5MT concentration at which inhibition of hairy root formation occurred” value (A. sinicus seedlings; [7])?
A: ≥ 50 µM

Q: And the “Growth on minimal medium with 5MT” value (E. coli trpE5972; site-directed mutagenized ASA2 alone, 10 μM 5MT)?
A: could not grow

Q: What about the “Growth on minimal medium with 5MT” value (E. coli trpE5972; strain transformed with ASA2 cDNA, 300 μM 5MT) of the same molecule?
A: grew well; also recorded: not inhibited

Q: And the “Growth on minimal medium with 5MT” value (E. coli trpE5972; strain transformed with site-directed mutant (Ser107, Gln108), 300 μM 5MT)?
A: did not grow

Q: What does the source list for `N[C@@H](Cc1c[nH]c2ccccc12)C(=O)O` [Trp, tryptophan]?
A: Ki (anthranilate synthase): 2000 nM and 3000 nM; AS activity remaining at 100 μM Trp (tobacco ASA2 [2]): 50%; AS inhibition by Trp (altered AS): 95%; Inhibition of Arabidopsis ASA1 gene product by Trp (Arabidopsis ASA1): completely inhibited; Ki (tobacco ASA2 [3]): 100000 nM; AS activity remaining (AS [4]; 900 μM Trp, 5MT-selected tobacco cells overexpressing ASA2, also AB15-12-1): 20%; Ki (AS [4]; extracts of 5MT-resistant tobacco suspension cultured cells): 300000 nM; Ki (AS [4]; extracts of wild-type tobacco suspension cultured cells): 2000 nM; enzyme activity of the feedback-insensitive ASA2 (AS [5]): 50%
